US20240247235A1, “niPSCs DERIVED FROM SOMATIC CELLS” (UNIVERSITA' DEGLI STUDI DI PADOVA, priority 2018, published 2024)

What was measured:
Human fibroblasts = test: mmRNA (OSKMN) reprogramming of fibroblasts to naïve-like iPSC colonies in microfluidics; format: cell-based
Experimental: Microfluidic channels were coated with 25 μg/ml fibronectin (Sigma Aldrich) for 30 min at room temperature. Somatic cells were seeded on day −1 of reprogramming at 25 cells/mm^2 for feeder-free reprogramming in DMEM/10% FBS. Such seeding density allowed robust proliferation and survival of somatic cells during reprogramming. On day 0, 2 hours before the first mmRNA transfection, the medium was changed to PRM, a medium optimized from mRNA transfection and previously used for derivation of primed PSCs (StemMACS ReproBREW XF, Miltenyi biotec). When indicated, 1 μM CH, 1 μM CH and 5 μM Ri were added to PRM. Transfection period is of 9 h. Cells were transfected daily at 9 am, and fresh PRM was given daily at 6 pm. On day 6, medium was changed with a naïve supporting medium according to table 1 and the same regime of transfection and fresh medium change was maintained until day 12. From day 0 to 12, media were supplemented with 200 ng/mL^−1 B18R (eBioscience). Transfections using a OSKMN+nGFP mmRNA mix (POU5F1, SOX2, KLF4, c-MYC, NANOG, nuclear GFP) were started on day 0 and daily repeated for 12 d. […]
Freshly-derived colonies were then cultured for 3 days without mmRNAs (day 15) to allow their complete clearance, and analyzed in situ for naïve or primed associated markers. […] Success rate, measured as the percentage of microfluidic channels containing naïve-like colonies, was evaluated (FIG. 3c). […]

primed iPS cells = test: Expansion of mixed primed- and naïve-like colonies generated in CCC with FGF receptor inhibitor; format: cell-based, human; conditions: expanded with inhibitor
Experimental: Side-by-side experiments comparing μF and CCC were performed. Generation of niPSCs in μF was robust (100% of channels contained colonies, with an efficiency of 3.7%+1.0 and 3.1%+0.4 from BJ and HFF-1, respectively, FIG. 9a). Conversely, in CCC only 25% of wells contained naïve-like colonies, with efficiency of 0.2% and 0.04%.

## Cc1c[nH]c(-c2cnc(NCCNc3ccc(C#N)cn3)nc2-c2ccc(Cl)cc2Cl)n1 [CH, CHIR99021]
Human fibroblasts; PRM + 1 μM CHIR99021 days 0-6, then 2LiGo+KSR, compared with other inhibitor combinations (FIG. 3b)
  Formed naïve-like colonies, inhibitor added to PRM during the first 6 days: Best results in term of formed colonies

## CCN(CC)CCCCNc1ncc2cc(-c3cc(OC)cc(OC)c3)c(NC(=O)NC(C)(C)C)nc2n1 [PD173074]
Primed iPS cells
  Effect on primed iPS cells in mixed primed/naïve culture: primed iPS cells were eliminated

## C[C@@H](N)[C@H]1CC[C@H](C(=O)Nc2ccncc2)CC1 [ROCK inhibitor, Y27632]
Human fibroblasts; added to reprogramming in 2iLGo+KSR, OSKMN mmRNA, microfluidics (FIG. 3c-e)
  Effect on colony formation efficiency: increased colony formation efficiency
